What was measured:
five isoforms of CYP450 = experiment: CYP450 inhibition, five isoforms; assay type: in vitro ADME
15N-labeled PDIa = target: T1, 15N-labeled PDIa (Homo sapiens, UniProt P07237); experiment: 1H-15N HSQC NMR of PDIa; assay type: binding
T1 construct: His6 (N, cleaved yes); made in house; host or cells: Escherichia coli BL21-Gold (DE3), M9 minimal medium with 15NH4Cl
Method: The ^1H-^15N HSQC spectra were performed on Bruker Avance III 500 Ascend (500 MHz) spectrometers at 300 K. The uniformly ^15N-labeled PDIa was dissolved at 50 μM or 100 μM in 90% H2O/10% D20 (v/v), pH 5.1. The ^1H carrier frequency was positioned at the water resonance. The ^15N carrier frequency was positioned at 115 ppm. The spectral width in the ^1H dimension was 7500 Hz and the width in ω1 (^15N) dimension was 1824.6 Hz. Suppression of water signal was accomplished using the WATERGATE sequence. Heteronuclear decoupling was accomplished using GARP decoupling scheme.

[1] = test system: uninduced PC12 cells not expressing mHTTQ103; experiment: General cell toxicity in PC12 cell culture assay; assay type: cell-based
Method: Neuroprotection was assessed by each compound's ability to rescue cells from mutant-huntingtin-induced cell death (“Ind Q103” cells; blue). General cell toxicity of each compound was assessed in uninduced cells not expressing mutant-huntingtin protein (“Unind Q103” cells; red). NMP, DMSO, LOC14 in NMP and LOC14 in DMSO were used as controls.
Data from cells induced to express mHTT^Q103 (blue) and cells not expressing mHTT^Q103 (red) are plotted as mean percent of DMSO-treated uninduced cells±SD with n=3.
The follow-up testing of primary screen hits was performed in a similar way. Fresh powder stocks of primary hits were re-ordered from vendors, dissolved in DMSO and tested in a two-fold serial dilution across 10 wells in both tebufenozide-induced and uninduced PC12 mHTT^Q103 cells. Dose-response curves were plotted as mean±SD and fit to either four-parameter sigmoidal (for uninduced cells) or bell-shaped (induced) function using Prism (GraphPad Software).

Adenosine A2A = Adenosine A2A (Homo sapiens, UniProt P29274); experiment: Off-target panel, Adenosine A2A; assay type: binding; settings: Conc. 3 μM
Adenosine A2A, sequence (P29274 whole entry): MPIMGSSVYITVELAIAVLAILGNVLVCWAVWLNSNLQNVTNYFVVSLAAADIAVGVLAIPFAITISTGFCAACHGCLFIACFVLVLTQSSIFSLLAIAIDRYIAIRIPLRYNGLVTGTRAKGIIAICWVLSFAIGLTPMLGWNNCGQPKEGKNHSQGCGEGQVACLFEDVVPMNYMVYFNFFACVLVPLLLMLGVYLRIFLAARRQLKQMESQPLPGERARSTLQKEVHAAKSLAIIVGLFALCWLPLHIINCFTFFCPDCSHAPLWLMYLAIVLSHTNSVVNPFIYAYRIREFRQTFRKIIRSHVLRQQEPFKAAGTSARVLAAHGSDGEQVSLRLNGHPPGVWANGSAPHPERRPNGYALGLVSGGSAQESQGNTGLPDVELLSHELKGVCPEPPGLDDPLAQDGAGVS

[2] = target: Nicotinic Acetylcholine α1, Bungarotoxin (Homo sapiens, UniProt P02708+P07510+Q07001); experiment: Off-target panel, Nicotinic Acetylcholine α1; assay type: binding; settings: read-out: % Inh.
Nicotinic Acetylcholine α1, Bungarotoxin, sequence (P11230 24-501): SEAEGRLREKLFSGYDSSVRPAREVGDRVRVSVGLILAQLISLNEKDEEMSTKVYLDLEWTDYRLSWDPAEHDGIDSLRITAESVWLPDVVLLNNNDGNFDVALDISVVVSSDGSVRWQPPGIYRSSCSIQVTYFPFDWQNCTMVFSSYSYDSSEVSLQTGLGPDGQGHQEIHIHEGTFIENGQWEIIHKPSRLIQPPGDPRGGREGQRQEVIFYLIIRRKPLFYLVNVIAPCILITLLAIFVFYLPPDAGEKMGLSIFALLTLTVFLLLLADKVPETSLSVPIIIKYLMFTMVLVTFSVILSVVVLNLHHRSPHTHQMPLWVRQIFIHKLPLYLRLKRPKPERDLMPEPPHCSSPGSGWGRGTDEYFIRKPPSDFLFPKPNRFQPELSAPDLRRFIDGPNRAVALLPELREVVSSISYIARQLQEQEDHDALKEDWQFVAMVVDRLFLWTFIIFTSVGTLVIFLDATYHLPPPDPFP
Nicotinic Acetylcholine α1, Bungarotoxin, sequence (P07510 23-517): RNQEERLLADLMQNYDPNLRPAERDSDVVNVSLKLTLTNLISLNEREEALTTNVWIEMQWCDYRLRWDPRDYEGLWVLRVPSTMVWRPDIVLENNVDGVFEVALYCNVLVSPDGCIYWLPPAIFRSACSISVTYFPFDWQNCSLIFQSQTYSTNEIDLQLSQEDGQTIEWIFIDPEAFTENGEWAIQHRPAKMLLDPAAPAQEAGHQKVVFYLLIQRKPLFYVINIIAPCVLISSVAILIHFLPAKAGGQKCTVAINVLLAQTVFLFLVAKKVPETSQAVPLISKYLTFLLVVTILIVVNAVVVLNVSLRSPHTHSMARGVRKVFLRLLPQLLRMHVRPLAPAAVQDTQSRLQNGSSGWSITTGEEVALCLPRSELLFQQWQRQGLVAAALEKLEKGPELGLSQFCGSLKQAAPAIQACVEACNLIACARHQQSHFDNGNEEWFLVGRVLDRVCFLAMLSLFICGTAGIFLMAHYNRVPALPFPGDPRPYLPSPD
Nicotinic Acetylcholine α1, Bungarotoxin, sequence (Q07001 22-517): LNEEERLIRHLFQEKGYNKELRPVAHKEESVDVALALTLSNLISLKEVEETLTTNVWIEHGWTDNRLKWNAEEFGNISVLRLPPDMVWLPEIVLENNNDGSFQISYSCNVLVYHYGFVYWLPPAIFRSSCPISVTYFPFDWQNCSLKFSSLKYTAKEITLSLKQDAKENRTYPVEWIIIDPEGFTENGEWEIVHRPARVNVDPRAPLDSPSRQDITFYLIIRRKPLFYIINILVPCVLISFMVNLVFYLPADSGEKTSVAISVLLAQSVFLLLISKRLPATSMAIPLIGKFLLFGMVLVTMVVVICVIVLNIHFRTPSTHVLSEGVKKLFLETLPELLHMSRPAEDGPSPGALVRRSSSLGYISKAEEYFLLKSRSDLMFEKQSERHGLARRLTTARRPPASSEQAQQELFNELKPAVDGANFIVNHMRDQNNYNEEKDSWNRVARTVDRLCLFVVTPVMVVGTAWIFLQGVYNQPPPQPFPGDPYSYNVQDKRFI
Nicotinic Acetylcholine α1, Bungarotoxin, sequence (P02708 21-457): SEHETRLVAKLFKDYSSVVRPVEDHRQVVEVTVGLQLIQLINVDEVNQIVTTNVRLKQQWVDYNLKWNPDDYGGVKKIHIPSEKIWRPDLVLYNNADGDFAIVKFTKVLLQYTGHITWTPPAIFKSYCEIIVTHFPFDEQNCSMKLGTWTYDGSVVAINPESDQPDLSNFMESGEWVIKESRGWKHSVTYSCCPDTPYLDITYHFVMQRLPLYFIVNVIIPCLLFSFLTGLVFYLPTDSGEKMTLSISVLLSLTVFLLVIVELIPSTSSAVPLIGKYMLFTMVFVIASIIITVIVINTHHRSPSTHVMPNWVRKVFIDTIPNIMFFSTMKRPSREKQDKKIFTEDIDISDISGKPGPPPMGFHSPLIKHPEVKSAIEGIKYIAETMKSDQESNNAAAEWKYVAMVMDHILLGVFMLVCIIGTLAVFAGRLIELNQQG

Opiate (OP3, MOP) = Opiate (OP3, MOP) (Homo sapiens, UniProt P35372); experiment: Off-target panel, Opiate; assay type: binding; settings: Conc. 3 μM
[3] = target: Serotonin (5-Hydroxytryptamine) 5-HT2B (Homo sapiens, UniProt P41595); experiment: Off-target panel, Serotonin 5-HT2B; assay type: binding; settings: Conc. 3 μM
Sigma σ1 = Sigma σ1 (Homo sapiens, UniProt Q99720); experiment: Off-target panel, Sigma σ1; assay type: binding; settings: Conc. 3 μM
Sigma σ1, sequence (Q99720 whole entry): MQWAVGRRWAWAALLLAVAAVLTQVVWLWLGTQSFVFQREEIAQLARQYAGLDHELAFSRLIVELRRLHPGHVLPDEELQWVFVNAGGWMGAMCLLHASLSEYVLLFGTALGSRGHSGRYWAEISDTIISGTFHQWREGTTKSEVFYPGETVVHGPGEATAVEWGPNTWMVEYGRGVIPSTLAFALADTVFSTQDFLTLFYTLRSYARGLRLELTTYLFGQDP

[4] = target: Transporter, Norepinephrine (NET) (Homo sapiens, UniProt P23975); experiment: Off-target panel, Norepinephrine transporter; assay type: binding; settings: Conc. 3 μM
GR = target: T2, GR (Homo sapiens, UniProt P04150); experiment: Safety47 panel nuclear hormone receptor GR; assay type: cell-based; settings: 3 μM
T2 construct: CEREP (CRO panel)
T2 sequence (P04150 whole entry): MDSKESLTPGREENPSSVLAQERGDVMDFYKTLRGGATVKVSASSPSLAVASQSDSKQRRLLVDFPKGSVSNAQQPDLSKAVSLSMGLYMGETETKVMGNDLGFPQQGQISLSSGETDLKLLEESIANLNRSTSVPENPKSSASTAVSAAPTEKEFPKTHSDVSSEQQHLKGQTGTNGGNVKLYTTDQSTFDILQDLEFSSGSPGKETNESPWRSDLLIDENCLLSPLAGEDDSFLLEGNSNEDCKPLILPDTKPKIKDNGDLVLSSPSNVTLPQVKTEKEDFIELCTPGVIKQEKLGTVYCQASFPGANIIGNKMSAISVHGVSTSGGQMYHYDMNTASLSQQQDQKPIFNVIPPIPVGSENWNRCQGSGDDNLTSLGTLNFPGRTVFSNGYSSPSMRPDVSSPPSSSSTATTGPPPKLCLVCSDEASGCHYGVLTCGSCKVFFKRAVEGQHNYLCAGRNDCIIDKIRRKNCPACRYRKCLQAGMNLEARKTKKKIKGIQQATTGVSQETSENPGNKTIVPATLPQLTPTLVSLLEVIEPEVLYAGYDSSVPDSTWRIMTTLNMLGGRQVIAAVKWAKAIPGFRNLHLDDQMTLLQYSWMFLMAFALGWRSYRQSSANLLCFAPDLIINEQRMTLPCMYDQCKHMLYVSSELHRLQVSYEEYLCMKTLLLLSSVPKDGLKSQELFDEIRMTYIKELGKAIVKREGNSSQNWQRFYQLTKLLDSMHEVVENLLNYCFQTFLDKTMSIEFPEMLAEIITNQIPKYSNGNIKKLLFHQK
Text: (§1) LOC14 was also submitted for testing in CEREP's Safety47 panel. CEREP is a CRO specializing in preclinical research, discovery and development of new pharmaceutical drugs.

GABAA = experiment: Safety47 panel ion channel GABAA; assay type: cell-based, human; settings: 3 μM
Text: as §1

HTR3A = target: T3, HTR3A (Homo sapiens, UniProt P46098); experiment: Safety47 panel ion channel HTR3A; assay type: cell-based; settings: 3 μM
T3 construct: CEREP (CRO panel)
T3 sequence (P46098 24-478): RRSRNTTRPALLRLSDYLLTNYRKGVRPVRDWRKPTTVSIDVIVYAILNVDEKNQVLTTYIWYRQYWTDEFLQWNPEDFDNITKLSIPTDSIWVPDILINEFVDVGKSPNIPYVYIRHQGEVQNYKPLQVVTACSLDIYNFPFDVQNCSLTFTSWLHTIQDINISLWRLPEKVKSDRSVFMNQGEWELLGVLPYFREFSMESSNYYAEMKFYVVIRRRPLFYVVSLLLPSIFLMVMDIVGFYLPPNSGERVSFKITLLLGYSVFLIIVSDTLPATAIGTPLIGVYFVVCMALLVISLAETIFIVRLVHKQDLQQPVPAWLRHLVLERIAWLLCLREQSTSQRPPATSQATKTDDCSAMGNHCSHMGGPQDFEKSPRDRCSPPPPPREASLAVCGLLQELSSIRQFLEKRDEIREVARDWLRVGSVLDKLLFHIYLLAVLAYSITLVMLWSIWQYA
Text: as §1

nAChR(a4/b2) = target: T4, nAChR(a4/b2) (Homo sapiens, UniProt P17787+P43681); experiment: Safety47 panel ion channel nAChR(a4/b2); assay type: cell-based; settings: 3 μM
T4 construct: CEREP (CRO panel)
T4 sequence (P43681 29-627 limits assumed): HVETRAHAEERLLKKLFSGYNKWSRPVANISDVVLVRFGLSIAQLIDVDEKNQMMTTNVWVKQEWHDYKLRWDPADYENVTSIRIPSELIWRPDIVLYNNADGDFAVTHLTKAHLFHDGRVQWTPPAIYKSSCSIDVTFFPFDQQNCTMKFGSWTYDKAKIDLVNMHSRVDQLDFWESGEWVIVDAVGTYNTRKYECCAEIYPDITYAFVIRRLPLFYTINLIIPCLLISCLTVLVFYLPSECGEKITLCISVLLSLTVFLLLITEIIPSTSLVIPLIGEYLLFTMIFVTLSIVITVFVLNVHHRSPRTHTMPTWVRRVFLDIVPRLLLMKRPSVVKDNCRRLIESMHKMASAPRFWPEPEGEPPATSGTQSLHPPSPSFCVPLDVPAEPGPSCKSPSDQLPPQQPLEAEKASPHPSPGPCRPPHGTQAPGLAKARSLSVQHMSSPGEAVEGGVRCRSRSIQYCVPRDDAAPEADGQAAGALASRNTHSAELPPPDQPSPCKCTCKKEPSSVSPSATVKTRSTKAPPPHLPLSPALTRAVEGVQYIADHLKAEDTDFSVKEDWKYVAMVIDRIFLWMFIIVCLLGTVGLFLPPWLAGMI
T4 sequence (P17787 26-502): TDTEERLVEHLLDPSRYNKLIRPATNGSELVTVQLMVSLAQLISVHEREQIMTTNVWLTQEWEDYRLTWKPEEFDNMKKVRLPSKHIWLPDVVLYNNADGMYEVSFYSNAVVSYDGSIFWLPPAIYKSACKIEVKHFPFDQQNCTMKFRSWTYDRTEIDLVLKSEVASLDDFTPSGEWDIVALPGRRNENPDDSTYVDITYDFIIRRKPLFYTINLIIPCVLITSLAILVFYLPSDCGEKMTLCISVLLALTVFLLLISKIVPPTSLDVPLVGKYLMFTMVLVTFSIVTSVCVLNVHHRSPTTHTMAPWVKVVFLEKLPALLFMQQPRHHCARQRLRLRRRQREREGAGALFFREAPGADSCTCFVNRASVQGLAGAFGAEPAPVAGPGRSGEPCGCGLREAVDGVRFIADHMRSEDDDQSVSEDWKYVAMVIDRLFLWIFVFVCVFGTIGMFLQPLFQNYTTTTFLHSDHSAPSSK
Text: as §1

NAV1.5 = target: T5, NAV1.5 (Homo sapiens, UniProt Q14524); experiment: Safety47 panel ion channel NAV1.5; assay type: cell-based; settings: Blocker mode; 3 μM
T5 construct: CEREP (CRO panel)
Text: as §1

COX1 = target: T6, COX1 (Homo sapiens, UniProt P23219); experiment: Safety47 panel non-kinase enzyme COX1; assay type: biochemical; settings: Inhibitor mode; 3 μM
T6 construct: CEREP (CRO panel)
Text: as §1

MAOA = target: T7, MAOA (Homo sapiens, UniProt P21397); experiment: Safety47 panel non-kinase enzyme MAOA; assay type: biochemical; settings: Inhibitor mode; 3 μM
T7 construct: CEREP (CRO panel)
Text: as §1

INSR = target: T8, INSR (Homo sapiens, UniProt P06213); experiment: Safety47 panel kinase INSR; assay type: biochemical; settings: Inhibitor mode; 3 μM
T8 construct: CEREP (CRO panel)
Text: as §1

ROCK1 = target: T9, ROCK1 (Homo sapiens, UniProt Q13464); experiment: Safety47 panel kinase ROCK1; assay type: biochemical; settings: Inhibitor mode; 3 μM
T9 construct: CEREP (CRO, Safety47 panel)
Text: as §1

47 human targets = experiment: CEREP Safety47 panel (summary); settings: 3 μM
Text: as §1

[5] = cited from earlier work
Potassium Channel hERG = Potassium Channel hERG (Homo sapiens, UniProt Q12809); experiment: in vitro
Text: Additionally, we tested LOC14 in CEREP's Safety47 panel, an in vitro pharmacological profiling to determine off-target liabilities that might exist against 47 human targets associated with safety issues (Table 3 and Table 4).

T1 sequence (P07237 18-134): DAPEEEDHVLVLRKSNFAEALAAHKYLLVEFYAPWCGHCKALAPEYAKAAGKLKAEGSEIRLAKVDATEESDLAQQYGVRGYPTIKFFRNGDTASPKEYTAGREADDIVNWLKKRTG

For `O=C(C1CC1)N1CCN(Cn2sc3c(F)cccc3c2=O)CC1` [LC-43], the “inhibition of the five isoforms of CYP450” value (five isoforms of CYP450) was “does not show any inhibition”, the “chemical shift changes in PDIa (1H-15N HSQC)” value (15N-labeled PDIa) was “same chemical shift changes in the active site as induced by LOC14” and the “toxicity in PC12 cell culture assay” value [1] was “decreased cellular toxicity”.

Molecule `O=C(C1CC1)N1CCN(Cn2sc3ccccc3c2=O)CC1` [LOC14] has an inhibition at 3 µM (Adenosine A2A) of -4%, an inhibition at 3 µM [2] of 11% and an inhibition at 3 µM (Opiate (OP3, MOP)) of -1%. The inhibition at 3 µM [3] was 36%, the inhibition at 3 µM (Sigma σ1) was -8% and the inhibition at 3 µM [4] was 24%. For the same molecule, the Average (GR; Agonist mode) was 0.0, the Average (GR; Antagonist mode) was 0.1 and the Average (GABAA; Blocker mode) was 5.1. It also gave an Average (GABAA; Opener mode) of 0.0, an Average (HTR3A; Blocker mode) of 0.0 and an Average (HTR3A; Opener mode) of 2.5. It also gave an Average (nAChR(a4/b2); Blocker mode) of 10.1, an Average (nAChR(a4/b2); Opener mode) of 0.0 and an Average (NAV1.5) of 7.0. The Average (COX1) was 1.4, the Average (MAOA) was 9.9 and the Average (INSR) was 22.7. The Average (ROCK1) was 13.5, the “off-target effects in Safety47 panel” value (47 human targets) was “no significant off-target effects” and the tolerated dose ([5]; in mice) was 20 mg/kg. The oral bioavailability ([5]; mouse, in vivo, po) was “orally bioavailable”, the blood-brain-barrier penetration ([5]; mouse, in vivo) was “blood-brain-barrier penetrant” and the “half-life in the brain” value ([5]; via oral gavage) was 2.2 h. The inhibition at 3 µM (Potassium Channel hERG) was 10%.

From patent US20220380383A1, “NEUROPROTECTIVE PDI MODULATING SMALL MOLECULES AND METHODS OF USE THEREOF” (THE TRUSTEES OF COLUMBIA UNIVERSITY IN THE CITY OF NEW YORK, priority 2018, published 2022)
